# Assay results reported in PubChem BioAssay (NCI).
# Where “and” joins values, the source holds several entries; their conditions need not be identical. Identical values can stand only once.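 Briefly, cells in 96-well plates were exposed to five compound concentrations for 48 h, and endpoints were estimated by linear interpolation. Here, GI50 denotes the concentration required for 50% inhibition of growth. TGI denotes the concentration required for complete inhibition of growth.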
# What was measured:
# Experiment in all cases: NCI-60 cell line screen, 48 h
# [1] = test system: OVCAR-3 ovarian
# [2] = test system: PC-3 prostate
# [3] = test system: MALME-3M melanoma
# [4] = test system: MDA-MB-435
# [5] = test system: M14 melanoma
# [6] = test system: MOLT-4 leukemia
# [7] = test system: HT29 colon
# [8] = test system: T-47D breast
# [9] = test system: HS 578T breast
SMILES,TGI [1],TGI [2] [µM],TGI [3],TGI [4] [µM],TGI [5] [µM],TGI [6],TGI [7],TGI [8] [µM],TGI [9] [µM],GI50 [1] [µM],GI50 [3] [µM],GI50 [6] [µM],GI50 [7] [µM]
C(=Nc1ccc(-c2nc3ccccc3s2)cc1)c1cccs1,> 100 µM,> 100,> 100 µM,> 100,> 100,> 100 µM,> 100 µM,> 100,> 100,,,,
CCC1OC2(C)CC(C#N)(C#N)C1(C#N)C(=N)O2 (stereo unspecified),> 100 µM,> 100,> 100 µM,> 100,> 100,> 100 µM,,> 100,> 100,,,,
O=C1CC(c2cccc([N+](=O)[O-])c2)C2(C(=O)NC(=S)NC2=O)C(c2cccc([N+](=O)[O-])c2)C1 (stereo unspecified),> 100 µM,> 100,53.2 µM,66.2,58.5,> 100 µM,> 100 µM,> 100,84.3,,,,
O=C(Oc1cncc(Cl)c1)c1cc2ccccc2sc1=O,> 100 µM,> 100,> 100 µM,> 100,> 100,90 µM,> 100 µM,> 100,> 100,,,,
O=C(CCC(NC(=O)OCc1ccccc1)C(=O)OCc1ccccc1)Nc1cccc(OCc2ccccc2)c1 (stereo unspecified),45.4 µM,35.9,56.4 µM,43.1,38.2,> 100 µM,70.9 µM,> 100,39.4,,,,
Oc1ccc(Nc2nc(Cl)c3[nH]cnc3n2)cc1,> 100 µM,> 100,> 100 µM,> 100,> 100,> 100 µM,> 100 µM,> 100,> 100,,,,
O=[N+]([O-])/C(Cl)=C(\NCCO)C(Cl)=C(Cl)Cl,> 100 µM,> 100,65 µM,> 100,77.5,63.6 µM,> 100 µM,99.8,> 91.5,,,,
O=C(NNC(=O)c1ccc(Cl)cc1NC(=O)C12CC3CC(CC(C3)C1)C2)c1ccc(Cl)cc1,58.3 µM,82.4,38.5 µM,35.6,57.6,60.6 µM,77 µM,> 100,46.6,,,,
Cc1c(C(=O)O)sc2nc[nH]c(=O)c12,> 100 µM,> 100,> 100 µM,> 100,> 100,> 100 µM,> 100 µM,> 100,79.5,,,,
COC(=O)c1ccc(C)cc1C1CN=NC12Cc1cccc(C)c1C2=O (stereo unspecified),> 100 µM,70.6,96.6 µM,37.9,42.1,43.1 µM,> 100 µM,85.8,> 100,,,,
CCOC(=O)c1c(SC(=O)c2ccc(Cl)cc2)n(-c2ccccc2)c(=S)n(-c2ccccc2)c1=O,> 100 µM,> 100,> 100 µM,> 100,> 100,> 100 µM,> 100 µM,> 100,> 100,,,,
O=Cc1c2c(cc3c1CC1(C3)Cc3cc4c(c(C=O)c3C1)CCC4)CCC2,> 100 µM,> 100,89.3 µM,> 100,> 100,48.7 µM,> 100 µM,> 100,80.5,,,,
Cc1noc(-c2ccc(C(=O)O)[nH]2)c1Br,> 100 µM,> 100,> 100 µM,> 100,> 100,> 100 µM,> 100 µM,71.4,> 100,,,,
Cc1c2oc(=O)c(C#N)cc2c2ccccn12,69.5 µM,> 100,> 100 µM,> 100,> 100,> 100 µM,> 100 µM,> 100,> 100,,,,
CCN(CC)CC[n+]1ccc2c(C)c3[nH]c4ccccc4c3c(C)c2c1,2.02 µM and 4.55 µM and 2.07 µM,3.18,1.92 µM and 2.27 µM and 1.15 µM,2.14,3.28,1.59 µM and 6.02 µM and 3.27 µM,3.82 µM and 4.45 µM and 4.46 µM,1.19,0.933,0.934,0.374,0.274,0.416
C[C@@H]([C@H]1CC[C@@]2(C)[C@@H]3CC[C@@H]4C(=CC3=CC[C@]12C)CC[C@H](N(C)C)C4(C)C)N(C)C,> 100 µM,> 100,> 100 µM,> 100,> 100,> 100 µM,> 100 µM,> 100,> 100,,,,
C#CCn1c(I)cc2c(c1=O)COC(=O)[C@]2(O)CC,> 100 µM,> 100,> 100 µM,> 100,> 100,> 100 µM,> 100 µM,> 100,> 100,,,,
CC(C)(C)c1cc(C(C)(C)C)c(SC2OC(CO)C(O)C(O)C2O)c(O)c1O (stereo unspecified),28.4 µM,28.3,26.9 µM,21,> 100,> 100 µM,24.5 µM,72.4,11.6,,,,
Clc1cc(Cl)nc(Nc2ccc3c(c2)CCC3)n1,> 100 µM,> 100,93.3 µM,> 100,> 100,69.6 µM,51.5 µM,> 100,> 100,,,,
CC(=O)OC1C2CCC3CC2C2(SCCS2)C31 (stereo unspecified),> 100 µM,> 100,> 100 µM,> 100,> 100,> 100 µM,> 100 µM,> 100,> 100,,,,
CC(=O)c1c(-c2ccco2)c(C#N)c(=S)n(C2OC(CO)C(O)C(O)C2O)c1C (stereo unspecified),> 100 µM,> 100,> 100 µM,> 100,> 100,> 100 µM,> 100 µM,> 100,> 100,,,,
CCOC(=O)c1cnc2n(c1=O)[C@H]1CCCC[C@@H]1N2,> 100 µM,> 100,> 100 µM,> 100,> 100,> 100 µM,> 100 µM,> 100,> 100,,,,
